# What was measured:
# [1] = Selectivity index, ratio of IC50 for human WI38 cells to IC50 for chloroquine-sensitive Plasmodium falciparum 3D7; format: toxicity, cell-based, WI-38; conditions: read-out: Ratio IC50
# [2] = test system: WI-38; experiment: Cytotoxicity against human WI38 cells assessed as cell viability by WST-1 assay; format: cell-based
# [3] = test system: Plasmodium falciparum; experiment: Antiplasmodial activity against chloroquine-sensitive Plasmodium falciparum 3D7 assessed as growth inhibition by lactate dehydrogenase assay; format: functional, organism-based
Compound,selectivity ratio [1],IC50 [2] [µg/mL],IC50 [3],IC90 [3] [µg/mL]
C/C=C1/CN2CC[C@]34c5ccccc5N5C(=O)[C@H]6[C@@H](O)[C@H]7[C@@H]8N(c9ccccc9[C@@]89CCN8C/C(=C/C)[C@@H]7C[C@H]89)[C@@H]6[C@H]([C@H]53)[C@H]1C[C@H]24,> 14,> 10,1100 nM,2.6
C/C=C1/CN2[C@@H](C3=C[C@@H]4[C@@H]5N(C3=O)c3ccccc3[C@@]53CCN5C/C(=C/C)[C@@H]4C[C@H]53)C[C@@]34c5ccccc5N5C6=C7[C@H]8C[C@@H]9N(CC[C@@]9%10c9ccccc9N(C6=C([C@H]1C[C@H]23)[C@H]54)[C@@H]7%10)C/C8=C/C,< 10.1,< 5,600 nM,1.6
C[C@@H]1CC[C@H]2[C@@H](C)C(=O)O[C@@H]3O[C@@]4(C)CC[C@@H]1[C@]32OO4 [ARTEMISININ],–,–,0.01 µg/mL,–
CC[C@@]1(O)C(=O)OCc2c1cc1n(c2=O)Cc2cc3ccccc3nc2-1 [CAMPTOTHECIN],–,0.03,–,–
